In PMC6684654 (Nature Communications, 2019):
Converted amounts (≈) assume the structure as drawn. Blank lines part the entries; values can stand above or below the compound they belong to.

Assays:
Type in all cases: cell-based
[1] = system: NDM-1 E. coli XJ141015; experiment: Kirby Bauer disc diffusion
Excerpt: (§1) Supplementary Table 1. Identification and antibiotic susceptibility of NDM-1-producing E. coli strains. […]
(§2) Cefoperazone/ sul bact am KB — — 7 (R) 7 (R) 7 (R)
(§3) Nitrofurantoi n KB — — 14 (R) 17 (R) 19 (S) […]
(§4) R, resistant; S, sensitive; M IC , minimum inhibitory concentration; KB, Kirb y Bauer disc diffusion method.
(§5) The unit of M IC is “ μ g/ mL”. The unit of KB is “ mm” .

[2] = system: NDM-1 E. coli XJ141026; experiment: Kirby Bauer disc diffusion
Excerpt: as §1, §2, §3, §4, §5

[3] = system: NDM-1 E. coli XJ141047; experiment: Kirby Bauer disc diffusion
Excerpt: as §1, §2, §3, §4, §5

[4] = system: K. pneumoniae ATCC13883; experiment: Kirby Bauer disc diffusion
Excerpt: (§6) Supplementary Ta b l e 2. Identification and anti biotic susceptibility of NDM-1-producing K. pneumonia strains.
(§7) Antibiotics NDM-1 NDM-1 NDM-1 NDM-1 […]
(§8) Cefoperazone/ sul bact am KB 32 (S) 7 (R) 7 (R) 7 (R) 7 (R)
(§9) Nitrofurantoi n KB 21 (S) 7 (R) 9 (R) 10 (R) 9 (R) […]
(§10) R, resistant; S, sensitive; M IC , minimum inhibitory concentration; KB, Kirb y Baue r disc diffusion method .
(§11) The unit of M IC is “μg/mL”. The unit of KB is “mm”.

[5] = system: NDM-1 K. pneumoniae XJ155017; experiment: Kirby Bauer disc diffusion
Excerpt: as §6, §7, §8, §9, §10, §11

[6] = system: NDM-1 K. pneumoniae XJ155018; experiment: Kirby Bauer disc diffusion
Excerpt: as §6, §7, §8, §9, §10, §11

[7] = system: NDM-1 K. pneumoniae XJ155019; experiment: Kirby Bauer disc diffusion
Excerpt: as §6, §7, §8, §9, §10, §11

[8] = system: NDM-1 K. pneumoniae XJ155020; experiment: Kirby Bauer disc diffusion
Excerpt: as §6, §7, §8, §9, §10, §11

[9] = system: E. coli ATCC25922; experiment: MIC, broth microdilution; conditions: Escherichia coli, ATCC25922; MHB, 5 × 10^5 CFU/mL, 16 h, 37 °C; read-out: MIC
Excerpt: (§12) MIC values were identified through microdilution in sterilized 96-well polypropylene microtiter plates according to the broth microdilution guideline of the Clinical and Laboratory Standards Institute[30]. The test medium was Mueller–Hinton broth (MHB), and the strain concentrations were adjusted to 5 × 10^5 CFU/mL.

[10] = system: E. coli ATCC35218; experiment: MIC, broth microdilution; conditions: Escherichia coli, ATCC35218; MHB, 5 × 10^5 CFU/mL, 16 h, 37 °C; read-out: MIC
Excerpt: as §12

[11] = system: K. pneumoniae ATCC13883; experiment: MIC, broth microdilution; conditions: Klebsiella pneumoniae, ATCC13883; MHB, 5 × 10^5 CFU/mL, 16 h, 37 °C; read-out: MIC
Excerpt: as §12

[12] = system: NDM-1 E. coli XJ141015; experiment: MIC, broth microdilution; conditions: Escherichia coli; MHB, 5 × 10^5 CFU/mL, 16 h, 37 °C; read-out: MIC
Excerpt: as §12

[13] = system: NDM-1 E. coli XJ141026; experiment: MIC, broth microdilution; conditions: Escherichia coli; MHB, 5 × 10^5 CFU/mL, 16 h, 37 °C; read-out: MIC
Excerpt: as §12

[14] = system: NDM-1 E. coli XJ141047; experiment: MIC, broth microdilution; conditions: Escherichia coli; MHB, 5 × 10^5 CFU/mL, 16 h, 37 °C; read-out: MIC
Excerpt: as §12

[15] = system: NDM-1 K. pneumoniae XJ155017; experiment: MIC, broth microdilution; conditions: Klebsiella pneumoniae; MHB, 5 × 10^5 CFU/mL, 16 h, 37 °C; read-out: MIC
Excerpt: as §12

[16] = system: NDM-1 K. pneumoniae XJ155018; experiment: MIC, broth microdilution; conditions: Klebsiella pneumoniae; MHB, 5 × 10^5 CFU/mL, 16 h, 37 °C; read-out: MIC
Excerpt: as §12

[17] = system: NDM-1 K. pneumoniae XJ155019; experiment: MIC, broth microdilution; conditions: Klebsiella pneumoniae; MHB, 5 × 10^5 CFU/mL, 16 h, 37 °C; read-out: MIC
Excerpt: as §12

[18] = system: NDM-1 K. pneumoniae XJ155020; experiment: MIC, broth microdilution; conditions: Klebsiella pneumoniae; MHB, 5 × 10^5 CFU/mL, 16 h, 37 °C; read-out: MIC
Excerpt: as §12

[19] = system: E. coli ATCC25922; experiment: Antibiotic susceptibility (MIC), automated identification system; conditions: Supplementary Table 1
Excerpt: (§13) Clinical isolate strains were identified and screened by the Phoenix 100 automated bacterial identification system to rapidly detect antimicrobial resistance. Total DNA was extracted by the TIANamp Bacteria DNA Kit according to the manufacturer’s protocol. The presence of blaNDM-1 was confirmed using a diagnostic kit for NDM-1 (Puruikang Bio Inc., Shenzhen, China) based on fluorescent quantitative polymerase chain reaction assay. According to the instruction, Ct values of less than 37 were considered positive.

[20] = system: K. pneumoniae ATCC13883; experiment: as above; conditions: Supplementary Table 2
Excerpt: as §13

[21] = system: NDM-1 E. coli XJ141015; experiment: as above; conditions: Supplementary Table 1
Excerpt: as §13

[22] = system: NDM-1 E. coli XJ141026; experiment: as above; conditions: Supplementary Table 1
Excerpt: as §13

[23] = system: NDM-1 E. coli XJ141047; experiment: as above; conditions: Supplementary Table 1
Excerpt: as §13

[24] = system: NDM-1 K. pneumoniae XJ155017; experiment: as above; conditions: Supplementary Table 2
Excerpt: as §13

[25] = system: NDM-1 K. pneumoniae XJ155018; experiment: as above; conditions: Supplementary Table 2
Excerpt: as §13

[26] = system: NDM-1 K. pneumoniae XJ155019; experiment: as above; conditions: Supplementary Table 2
Excerpt: as §13

[27] = system: NDM-1 K. pneumoniae XJ155020; experiment: as above; conditions: Supplementary Table 2
Excerpt: as §13

[28] = Escherichia coli, read-out: KB disc diffusion
[29] = Klebsiella pneumoniae, read-out: KB disc diffusion

Structure (SMILES): O=C1CN(/N=C/c2ccc([N+](=O)[O-])o2)C(=O)N1 [Nitrofurantoin]
susceptibility class (KB) [1]: R
susceptibility class (KB) [2]: R
Kb [2, 28]: 17 mM
susceptibility class (KB) [3]: S
inhibition zone diameter [3, 28]: 19 mM
susceptibility class (KB) [4]: S
inhibition zone diameter ([4]; Klebsiella pneumoniae, ATCC13883, read-out: KB disc diffusion): 21 mM
susceptibility class (KB) [5]: R
inhibition zone diameter (Kirby-Bauer disc diffusion) [5, 29]: 7 mM
susceptibility class (KB) [6]: R
inhibition zone diameter [6, 29]: 9 mM
susceptibility class (KB) [7]: R
Kb [7, 29]: 10 mM
susceptibility class (KB) [8]: R
disc diffusion inhibition zone diameter [8, 29]: 9 mM

MIC [9]: 2 µg/mL (≈ 3.86 µM)
MIC [10]: > 256 µg/mL
MIC [11]: 8 µg/mL (≈ 15.5 µM)
MIC [12]: > 256 µg/mL
MIC [13]: > 256 µg/mL
MIC [14]: > 256 µg/mL
MIC [15]: > 256 µg/mL
MIC [16]: > 256 µg/mL
MIC [17]: > 256 µg/mL
MIC [18]: > 256 µg/mL
MIC ([19]; Escherichia coli, ATCC25922): ≤ 4 µg/mL
susceptibility class (MIC) [19]: S
MIC ([20]; Klebsiella pneumoniae, ATCC13883): 8 µg/mL (≈ 15.5 µM)
susceptibility class (MIC) [20]: S
MIC ([21]; Escherichia coli): > 64 µg/mL
susceptibility class (MIC) [21]: R
MIC ([22]; Escherichia coli): > 64 µg/mL
susceptibility class (MIC) [22]: R
MIC ([23]; Escherichia coli): > 64 µg/mL
susceptibility class (MIC) [23]: R
MIC ([24]; Klebsiella pneumoniae): > 64 µg/mL
susceptibility class (MIC) [24]: R
MIC ([25]; Klebsiella pneumoniae): > 64 µg/mL
susceptibility class (MIC) [25]: R
MIC ([26]; Klebsiella pneumoniae): > 64 µg/mL
susceptibility class (MIC) [26]: R
MIC ([27]; Klebsiella pneumoniae): > 64 µg/mL
susceptibility class (MIC) [27]: R
Structure (SMILES): CCN1CCN(C(=O)N[C@@H](C(=O)N[C@@H]2C(=O)N3[C@@H]2SC(C)(C)[C@@H]3C(=O)O)c2ccccc2)C(=O)C1=O [Piperacillin]

Structure (SMILES): Cc1onc(-c2ccccc2)c1C(=O)N[C@@H]1C(=O)N2[C@@H]1SC(C)(C)[C@@H]2C(=O)O [Oxacillin]
MIC [9]: 64 µg/mL (≈ 159 µM)
MIC [10]: 256 µg/mL (≈ 638 µM)
MIC [11]: 64 µg/mL (≈ 159 µM)
MIC [12]: > 256 µg/mL
MIC [13]: > 256 µg/mL
MIC [14]: > 256 µg/mL
MIC [15]: > 256 µg/mL
MIC [16]: > 256 µg/mL
MIC [17]: > 256 µg/mL
MIC [18]: > 256 µg/mL
